For one data set, the system named is galectins. The settings on record: cited from earlier work.
A short description of the next data set: aqueous solubility. The data set is classed as physicochemical. The settings on record: water.
For the next data set, the target named is Galectin-3 (Homo sapiens, UniProt P17931). Nature of the data set: fluorescence anisotropy assay, inhibition of galectin / fluorescein tagged saccharide probe interaction. Type of data set: binding. Conditions: for pKd: fluorescence anisotropy; for affinity towards the corresponding galectin (in words): pro-drug itself. (Polarisation of emitted light reports the rotation of a fluorescent probe.)

The nature of data set [1]: mouse PK experiments, plasma exposure of Ref 1 after p.o. administration. Type of data set: in vivo. The settings on record: for exposure in mice PK after per oral administration: mouse, p.o., 20, 40, 80 and 160 mg/kg, plasma exposure of Ref 1.

Each structure is given as a SMILES string. pKd: −log10 of the molar value. Values after ≈ are worked out from the molar mass of the structure shown.

Sequence of Galectin-3 (P17931 whole entry): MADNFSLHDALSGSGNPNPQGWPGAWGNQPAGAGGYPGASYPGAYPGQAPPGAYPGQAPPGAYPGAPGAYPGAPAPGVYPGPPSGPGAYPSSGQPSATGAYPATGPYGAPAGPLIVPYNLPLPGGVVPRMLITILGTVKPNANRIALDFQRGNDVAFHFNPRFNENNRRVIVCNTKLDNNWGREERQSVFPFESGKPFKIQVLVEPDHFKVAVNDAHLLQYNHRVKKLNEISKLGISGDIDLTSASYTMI

Regarding `O=C[C@H](O)[C@@H](O)[C@@H](O)[C@H](O)CO` [D-galactose], the “affinity, times lower than lactose” value in the data set with galectins (relative to lactose) is on record as 50-100 times. As for `O=P(O)(O)OCO[C@@H]1[C@@H](n2cc(-c3cc(F)c(Cl)c(F)c3)nn2)[C@@H](O)[C@@H](CO)O[C@@H]1Sc1cncc(Br)c1` [Example 9, 5-Bromopyridin-3-yl 3-[4-(4-chloro-3,5-difluorophenyl)-1H-1,2,3-triazol-1-yl]-3-deoxy-2-O-[(phosphonooxy)methyl]-1-thio-α-D-galactopyranoside], the solubility in the data set “aqueous solubility” stood at 800 µg/mL (≈ 1.21 mM). This compound gave a pKd at Galectin-3 of 8.15.

Take `O=P(O)(O)OC[C@H]1O[C@H](Sc2cncc(Br)c2)[C@H](O)[C@@H](n2cc(-c3cc(F)c(F)c(F)c3)nn2)[C@H]1O` [Example 1, 5-Bromopyridin-3-yl 3-deoxy-3-[4-(3,4,5-trifluorophenyl)-1H-1,2,3-triazol-1-yl]-6-O-phospho-1-thio-α-D-galactopyranoside]: in “aqueous solubility”, the concentration in solution (solubility) was 8500 µg/mL (≈ 13.9 mM). In addition, on Galectin-3, the pKd is 4.46 and the “affinity towards the corresponding galectin (in words)” value is recorded as “low”. The compound `O=P(O)(O)OCO[C@@H]1[C@@H](n2cc(-c3cc(F)c(F)c(F)c3)nn2)[C@@H](O)[C@@H](CO)O[C@@H]1Sc1cncc(Br)c1` [Example 8, 5-Bromopyridin-3-yl 3-deoxy-3-[4-(3,4,5-trifluorophenyl)-1H-1,2,3-triazol-1-yl]-2-O-[(phosphonooxy)methyl]-1-thio-α-D-galactopyranoside] gave a solubility in “aqueous solubility” above 10000 µg/mL. The “exposure in mice PK after per oral administration” value in data set [1] is listed as “dose correlated exposure”. At Galectin-3, this compound had a pKd of 8.00. In “aqueous solubility”, `OC[C@H]1O[C@H](Sc2ccc(Cl)c(Cl)c2)[C@H](O)[C@@H](n2cc(-c3cc(F)c(F)c(F)c3)nn2)[C@H]1O` [Ref 2, 3,4-Dichlorophenyl 3-deoxy-3-[4-(3,4,5-trifluorophenyl)-1H-1,2,3-triazol-1-yl]-1-thio-α-D-galactopyranoside, reference compound] gave a solubility of 37 µg/mL (≈ 0.0708 mM). `OC[C@H]1O[C@H](Sc2cncc(Br)c2)[C@H](O)[C@@H](n2cc(-c3cc(F)c(F)c(F)c3)nn2)[C@H]1O` [Ref 1, 5-Bromopyridin-3-yl 3-deoxy-3-[4-(3,4,5-trifluorophenyl)-1H-1,2,3-triazol-1-yl]-1-thio-α-D-galactopyranoside, reference compound] gave a solubility in the data set “aqueous solubility” of 7 µg/mL (≈ 0.0131 mM). For the same compound, the oral availability entry in data set [1] (mouse PK, some formulations, dosed above 10 mg/kg) is on record as “limited oral availability”. For the compound `O=S(=O)(O)OC1C(n2cc(-c3cc(F)c(F)c(F)c3)nn2)[C@@H](O)C(CO)O[C@@H]1Sc1ccc(Cl)c(Cl)c1` (stereo partly drawn) [Example 4, 3,4-Dichlorphenyl 3-Deoxy-3-[4-(3,4,5-trifluorophenyl)-1H-1,2,3-triazol-1-yl]-2-O-sulfo-1-thio-α-D-galactopyranoside], the pKd on Galectin-3 is 7.85. Turning to `OC[C@H]1O[C@@H](O[C@H]2[C@H](O)[C@@H](O)C(O)O[C@@H]2CO)[C@H](O)[C@@H](O)[C@H]1O` (stereo partly shown) [lactose], the pKd at galectins (read-out: Kd, all galectins) is 3.00 to 3.30.

In turn, `O=P(O)(O)O[C@@H]1[C@@H](n2cc(-c3cc(F)c(F)c(F)c3)nn2)[C@@H](O)[C@@H](CO)O[C@@H]1Sc1ccc(Cl)c(Cl)c1` [Example 3, 3,4-Dichlorophenyl 3-deoxy-3-[4-(3,4,5-trifluorophenyl)-1H-1,2,3-triazol-1-yl]-2-O-phospho-1-thio-α-D-galactopyranoside] gave a pKd on Galectin-3 of 8.15. On to `OC[C@H]1O[C@H](Sc2cncc(Br)c2)[C@H](O)[C@@H](n2cc(-c3cc(F)c(Cl)c(F)c3)nn2)[C@H]1O` [Ref 3, 5-Bromopyridin-3-yl 3-deoxy-3-[4-(4-chloro-3,5-difluorophenyl)-1H-1,2,3-triazol-1-yl]-1-thio-α-D-galactopyranoside, reference compound], for which the solubility in “aqueous solubility” turned out to be 7 µg/mL (≈ 0.0127 mM).

In the data set “aqueous solubility”, `O=S(=O)(O)OC[C@H]1O[C@H](Sc2cncc(Br)c2)[C@H](O)[C@@H](n2cc(-c3cc(F)c(F)c(F)c3)nn2)[C@H]1O` [Example 6, 5-Bromopyridin-3-yl 3-Deoxy-3-[4-(3,4,5-trifluorophenyl)-1H-1,2,3-triazol-1-yl]-6-O-sulfo-1-thio-α-D-galactopyranoside] showed a solubility of 9600 µg/mL (≈ 15.7 mM). This compound showed a pKd at Galectin-3 of 4.57. `O=S(=O)(O)O[C@@H]1[C@@H](n2cc(-c3cc(F)c(F)c(F)c3)nn2)[C@@H](O)[C@@H](CO)O[C@@H]1Sc1cncc(Br)c1` [Example 5, 5-Bromopyridin-3-yl 3-Deoxy-3-[4-(3,4,5-trifluorophenyl)-1H-1,2,3-triazol-1-yl]-2-O-sulfo-1-thio-α-D-galactopyranoside] had a pKd on Galectin-3 of 8.40. On to `O=P(O)(O)OCOC[C@H]1O[C@H](Sc2cncc(Br)c2)[C@H](O)[C@@H](n2cc(-c3cc(F)c(F)c(F)c3)nn2)[C@H]1O` [Example 7, 5-Bromopyridin-3-yl 3-deoxy-3-[4-(3,4,5-trifluorophenyl)-1H-1,2,3-triazol-1-yl]-6-O-[(phosphonooxy)methyl]-1-thio-α-D-galactopyranoside], for which the solubility in “aqueous solubility” is above 10000 µg/mL. For the same compound, the “exposure in mice PK after per oral administration” value in data set [1] is given as “dose correlated exposure”. At Galectin-3, the pKd was 4.82 and the “affinity towards the corresponding galectin (in words)” value was “low”. In the case of `O=P(O)(O)O[C@@H]1[C@@H](n2cc(-c3cc(F)c(F)c(F)c3)nn2)[C@@H](O)[C@@H](CO)O[C@@H]1Sc1cncc(Br)c1` [Example 2, 5-Bromopyridin-3-yl 3-deoxy-3-[4-(3,4,5-trifluorophenyl)-1H-1,2,3-triazol-1-yl]-2-O-phospho-1-thio-α-D-galactopyranoside], in the data set “aqueous solubility”, the concentration in solution (solubility) came to 9800 µg/mL (≈ 16 mM). This compound also had a pKd on Galectin-3 of 8.22.

The solubility is the concentration that dissolves in the medium under given conditions. High values mean much dissolved substance, low ones little dissolved substance. Usually pKd stands for the negative decadic logarithm of the Kd, by convention in mol/L.

The values above are taken from patent US20210380623A1, “PRODRUG GALACTOSIDE INHIBITOR OF GALECTINS” (GALECTO BIOTECH AB, priority 2018, published 2021).
